Measured values as given in patent publication US20230391845A1, “GLP-1, GIP AND GLUCAGON RECEPTOR TRIPLE AGONISTS” (priority 2020, published 2023).
“Also recorded” adds a separate entry of the source. *1 amine or outer side, *2 acyl side, *3 side chain or, on linkers, in order; H or OH if unused. Where a SMILES comes first, the peptide text is derived from it. Side-chain parts run from the residue outwards. [ ]: non-standard residue; d: D form. The star is where a group is joined. C20 diacid = O=C(O)CCCCCCCCCCCCCCCCCCC(=O)*; γGlu = O=C(O)[C@H](CCC(=O)[*:2])N[*:1]; AEEA = NCCOCCOCC(=O)O; Aib = CC(C)(N)C(=O)O

Columns and labels:
[1] = target: T1, human GLP-1 receptor (Homo sapiens, UniProt P43220); test: In vitro functional potency (CRE luciferase; whole cells), human GLP-1R; format: cell-based
T1 construct: expressed in transfected cells; host or cells: BHK cells (parent line BHKTS13) containing CRE luciferase

[2] = Pharmacodynamic study in DIO mice, daily s.c. dosing over 13 days (body weight, food intake); format: in vivo, C57BL/6J male mice; conditions: for Absolute BW (grams) Day 0: Day 0 (baseline); for Cumulative food intake (grams) Day 13: mean ± SEM, n = 2
Procedure: (§1) The purpose of this example is to assess the in vivo effect of selected triple agonists on pharmacodynamic parameters in diet-induced obese (DIO) mice. The animals were treated once daily via subcutaneous injection with a liquid formulation of the triple agonist to be tested to assess effects on body weight, foot intake, and glucose tolerance.
(§2) C57BL/6J male mice were purchased from Jackson Laboratories at approximately 8 weeks of age. Mice were group housed and fed a high-fat, high-sugar diet from Research Diets (D12331). Mice were maintained on this diet for 12 weeks prior to initializing the pharmacology studies. Mice exceeding a measured body weight of 50 grams were considered diet-induced obese (DIO) and included in pharmacology studies. Mice were exposed to a controlled 12 h:12 h light:dark cycle at ambient room temperature (22° C.) with ab libitum access to food and water. Studies were approved by and performed according to the guidelines of the Institutional Animal Care and Use Committee of the University of Cincinnati.
(§3) All compounds in the study were formulated in the following buffer: 50 mM phosphate; 70 mM sodium chloride; 0.05% Tween-80, pH 7.4. Dosing solutions were formulated in glass vials and stored at 2-8° C. Dosing solutions were brought to room temperature before dosing and returned to 2-8° C. after dosing.
(§4) The animals were grouped to receive treatment as follows: Vehicle or GLP-1/GIP/Gcg receptor triple agonists as described herein, where vehicle is 50 mM phosphate, 70 mM sodium chloride; 0.05% (v/v) Tween-80, pH 7.4. The test compounds were dissolved in the vehicle, to stock concentrations of […], then diluted 50- to 200-fold in the vehicle to achieve the desired dosing solution concentrations. Animals were dosed subcutaneously once daily in the morning for each day of treatment with dosing solution at a volume of 2-5 μL per gram of body weight as necessary to achieve the desired dose (e.g. 0.3 nmol/kg, 1.0 nmol/kg, or 3.0 nmol/kg).
Body weight (BW) and food intake were measured immediately prior to dosing each day. The percent change in body was calculated individually for each mouse based on initial body weight prior to the first injection.

[3] = IPGTT (intraperitoneal glucose tolerance test) in DIO mice; format: in vivo, C57BL/6J male mice; conditions: for iAUC, IPGTT (min*mg/dL) Day 14: i.p. glucose 2 g/kg, baseline subtracted AUC
Procedure: as §1, §2, §3
as §4, with “DIO mice were distributed into groups (n=8 per group) such that statistical variations in the mean and standard deviations of fat mass and body weight were minimized between groups. The animals” for “The animals”
On the day of the glucose tolerance test, animals were fasted for 4 h. Food was removed and animals were transferred to fresh cages. Animals had access to water but not to food. Tail blood glucose levels were measured, and mice were injected (t=0) with an intraperitoneal (i.p.) glucose load of 2 g/kg (200 mg/ml glucose solution, dose volume 10 ml/kg). Tail blood glucose levels were measured at times 0, 15, 30, 60, 90, 120 minutes following the i.p. glucose load. Stratification of the animals during the IPGTT was such that for example two mice from group 1 are dosed followed by two mice from group 2, 3, 4, before the next two mice from group 1, 2, 3 etc. were handled. This was to allow for equal distribution of “time of day” throughout all groups.

[4] = daily s.c. dosing over 13 days, compared to vehicle

T1 sequence (P43220 24-463): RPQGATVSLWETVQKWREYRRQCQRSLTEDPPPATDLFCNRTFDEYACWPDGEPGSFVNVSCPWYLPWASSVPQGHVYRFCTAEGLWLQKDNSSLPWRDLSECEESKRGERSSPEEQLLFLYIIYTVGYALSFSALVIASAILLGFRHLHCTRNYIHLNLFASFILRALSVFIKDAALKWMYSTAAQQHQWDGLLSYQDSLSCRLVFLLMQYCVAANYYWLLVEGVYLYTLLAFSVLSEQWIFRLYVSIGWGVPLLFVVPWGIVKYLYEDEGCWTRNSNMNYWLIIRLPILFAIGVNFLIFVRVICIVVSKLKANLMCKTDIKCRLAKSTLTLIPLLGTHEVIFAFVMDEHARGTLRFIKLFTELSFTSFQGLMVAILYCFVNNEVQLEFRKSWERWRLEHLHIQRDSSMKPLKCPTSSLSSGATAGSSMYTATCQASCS

CC[C@H](C)[C@H](NC(=O)[C@H](CO)NC(=O)[C@H](Cc1ccc(O)cc1)NC(=O)[C@H](CC(=O)O)NC(=O)[C@H](CO)NC(=O)[C@@H](NC(=O)[C@H](Cc1ccccc1)NC(=O)[C@@H](NC(=O)CNC(=O)[C@H](Cc1c[nH]cn1)NC(=O)C(C)(C)NC(=O)[C@@H](N)Cc1c[nH]cn1)[C@@H](C)O)[C@@H](C)O)C(=O)N[C@@H](Cc1ccc(O)cc1)C(=O)N[C@@H](CC(C)C)C(=O)N[C@@H](CCC(=O)O)C(=O)N[C@@H](CCCCNC(=O)COCCOCCNC(=O)COCCOCCNC(=O)CC[C@H](NC(=O)CCCCCCCCCCCCCCCCCCC(=O)O)C(=O)O)C(=O)N[C@@H](CCC(N)=O)C(=O)N[C@@H](C)C(=O)N[C@@H](C)C(=O)NC(C)(C)C(=O)N[C@@H](CCC(=O)O)C(=O)N[C@@H](Cc1ccccc1)C(=O)N[C@H](C(=O)N[C@@H](CCC(N)=O)C(=O)N[C@@H](Cc1c[nH]c2ccccc12)C(=O)N[C@@H](CC(C)C)C(=O)N[C@@H](CC(C)C)C(=O)N[C@@H](CCC(=O)O)C(=O)NCC(=O)NCC(=O)N1CCC[C@H]1C(=O)N[C@@H](CO)C(=O)N[C@@H](CO)C(=O)NCC(=O)N[C@@H](C)C(=O)N1CCC[C@H]1C(=O)N1CCC[C@H]1C(=O)N1CCC[C@H]1C(=O)N[C@@H](CO)C(N)=O)C(C)C [Compound No. 44] (H-H[Aib]HGTFTSDYSIYLEK([AEEA-AEEA-γGlu-C20 diacid])QAA[Aib]EFVQWLLEGGPSSGAPPPS-NH2; N-terminus assumed)
EC50 [1]: 1.8 pM | Absolute BW (grams) Day 0 ([2]; 0.3 nmol/kg group): 59.2 ± 1.2 grams | Absolute BW (grams) Day 13 ([2]; 0.3 nmol/kg s.c. once daily): 56.9 ± 1.5 grams | Change in BW (%) Day 13 ([2]; 0.3 nmol/kg s.c. once daily): −3.9 ± 1.1% | Cumulative food intake (grams) Day 13 ([2]; 0.3 nmol/kg s.c. once daily): 28.0 ± 0.6 grams | Absolute BW (grams) Day 0 ([2]; 1.0 nmol/kg group): 60.8 ± 1.1 grams | Absolute BW (grams) Day 13 ([2]; 1.0 nmol/kg s.c. once daily): 52.7 ± 1.3 grams | Change in BW (%) Day 13 ([2]; 1.0 nmol/kg s.c. once daily): −13.4 ± 0.9% | Cumulative food intake (grams) Day 13 ([2]; 1.0 nmol/kg s.c. once daily): 24.8 ± 1.8 grams | Absolute BW (grams) Day 0 ([2]; 3.0 nmol/kg group): 60.6 ± 1.1 grams | Absolute BW (grams) Day 13 ([2]; 3.0 nmol/kg s.c. once daily): 43.1 ± 1.8 grams | Change in BW (%) Day 13 ([2]; 3.0 nmol/kg s.c. once daily): −29.1 ± 2.3% | Cumulative food intake (grams) Day 13 ([2]; 3.0 nmol/kg s.c. once daily): 12.4 ± 1.5 grams | reduction in body weight (in words) [2, 4]: superior reduction; also recorded: dose-dependent effect | reduction in food intake (in words) [2, 4]: superior reduction; also recorded: dose-dependent effect | iAUC, IPGTT (min*mg/dL) Day 14 ([3]; 0.3 nmol/kg s.c. once daily): 25356 ± 4338 mg·min/dL | glucose tolerance compared to vehicle (in words) ([3]; 1.0 nmol/kg and 3.0 nmol/kg doses): improved glucose tolerance | iAUC, IPGTT (min*mg/dL) Day 14 ([3]; 1.0 nmol/kg s.c. once daily): 14606 ± 2410 mg·min/dL | iAUC, IPGTT (min*mg/dL) Day 14 ([3]; 3.0 nmol/kg s.c. once daily): 15161 ± 2257 mg·min/dL
